Source: US7109243B2 (IRM LLC, priority 2003, dated 2006)

Assays:
Cathepsin S = Cathepsin S (Homo sapiens, UniProt P25774); assay: Cathepsin S inhibition assay (fluorogenic peptide substrate); type: biochemical; details: Table II, compounds of Formula I; read-out: Ki Cat. S
Method in brief: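 Ki values come from nonlinear fitting of inhibited hydrolysis rates, taking free and total inhibitor concentrations as equal. Rates measured as rising fluorescence at 380/450 nm after reaction start with 50 μM final acetyl-HPVK-aminocarbamoylcoumarin.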

Cathepsin K = molecular target: T1, Cathepsin K (Homo sapiens, UniProt P43235); assay: Cathepsin K inhibition assay (fluorogenic peptide substrate); selectivity ratio vs cathepsin S; type: biochemical; details: ratio of cathepsin K inhibition constant to cathepsin S inhibition constant; Table II
T1 sequence (P43235 115-329): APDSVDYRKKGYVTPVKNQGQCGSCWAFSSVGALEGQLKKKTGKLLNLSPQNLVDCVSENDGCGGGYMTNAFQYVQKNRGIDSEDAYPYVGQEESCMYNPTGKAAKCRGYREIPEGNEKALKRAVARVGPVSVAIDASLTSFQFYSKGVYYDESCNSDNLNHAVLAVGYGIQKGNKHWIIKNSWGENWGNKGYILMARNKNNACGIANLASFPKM
Method in brief: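 Fluorogenic kinetic assay, started with acetyl-Lys-His-Pro-Lys-aminocarbamoylcoumarin at 40 μM final, hydrolysis followed at ex 380/em 450 nm. Apparent inhibition constants from progress curves, converted to competitive inhibition constants. Selectivity expressed as isozyme inhibition constant divided by cathepsin S inhibition constant.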

Cathepsin S, sequence (P25774 115-331, species assumed): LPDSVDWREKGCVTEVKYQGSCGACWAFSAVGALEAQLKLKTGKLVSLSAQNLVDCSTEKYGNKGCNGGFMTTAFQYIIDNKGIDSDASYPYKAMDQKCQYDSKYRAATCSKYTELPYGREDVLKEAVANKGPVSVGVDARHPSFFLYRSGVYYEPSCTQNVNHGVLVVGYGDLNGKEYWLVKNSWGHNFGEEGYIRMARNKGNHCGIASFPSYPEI

COc1ccc(NCCNC(=O)[C@H](CC2CCCC2)NC(=O)c2ccc(-c3cccc(C(F)(F)F)c3)o2)cc1 [Compound 6, N-((S)-1-(2-(4-methoxyphenylamino)ethylcarbamoyl)-2-cyclopentylethyl)-5-(3-(trifluoromethyl)phenyl)furan-2-carboxamide]
Ki (Cathepsin S): < 100 nM
Selectivity for Cat. S over Cat. K (Cathepsin K): ++ (++, >100)

N#Cc1ccc(C(=O)N[C@@H](CC2CCCCC2)C(=O)NCCNc2ccc(F)cc2)cc1 [Compound 316, 4-Cyano-N-(S)-{2-cyclohexyl-1-[2-(4-fluoro-phenylamino)-ethylcarbamoyl]-ethyl}-benzamide]
Ki (Cathepsin S): < 100 nM
Selectivity for Cat. S over Cat. K (Cathepsin K): ++ (++, >100)

Cc1oc(S(=O)(=O)N2CCCC2)cc1C(=O)N[C@@H](CC1CCCCC1)C(=O)NCCNc1ccc(OC(F)(F)F)cc1 [Compound 40, 2-Methyl-5-(pyrrolidine-1-sulfonyl)-furan-3-carboxylic acid (S)-{2-cyclohexyl-1-[2-(4-trifluoromethoxy-phenylamino)-ethylcarbamoyl]-ethyl}-amide]
Ki (Cathepsin S): < 1000 nM
Selectivity for Cat. S over Cat. K (Cathepsin K): + (+, >10)

O=C(N[C@@H](CC1CCCCC1)C(=O)NCCNc1ccc(OC(F)(F)F)cc1)c1ccc(-c2ccccc2F)s1 [Compound 201, (S)-5-(2-Fluoro-phenyl)-thiophene-2-carboxylic acid {2-cyclohexyl-1-[2-(4-trifluoromethoxy-phenylamino)-ethylcarbamoyl]-ethyl}-amide]
Ki (Cathepsin S): < 100 nM
Selectivity for Cat. S over Cat. K (Cathepsin K): ++ (++, >100)

COc1ccc(NCCNC(=O)[C@H](Cc2ccc(Oc3ccc(N(C)C)cc3)cc2)NC(=O)c2cccc(C)c2)cc1 [Compound 33, (S)-N-{2-[4-(4-Dimethylamino-phenoxy)-phenyl]-1-[2-(4-methoxy-phenylamino)-ethylcarbamoyl]-ethyl}-3-methyl-benzamide]
Ki (Cathepsin S): < 10000 nM
Selectivity for Cat. S over Cat. K (Cathepsin K): + (+, >10)

O=C(N[C@@H](CC1CCCCC1)C(=O)NCCNc1ccc(OC(F)(F)F)cc1)c1ccc(-c2ccc(C(F)(F)F)cc2)s1 [Compound 205, (S)-5-(4-Trifluoromethyl-phenyl)-thiophene-2-carboxylic acid {2-cyclohexyl-1-[2-(4-trifluoromethoxy-phenylamino)-ethylcarbamoyl]-ethyl}-amide]
Ki (Cathepsin S): < 100 nM
Selectivity for Cat. S over Cat. K (Cathepsin K): ++ (++, >100)

COc1ccc(NCCNC(=O)[C@H](CC2CCCCC2)NC(=O)[C@H](O)c2ccccc2)cc1 [Compound 160, 3-Cyclohexyl-2-(S)-(2-(R)-hydroxy-2-phenyl-acetylamino)-N-[2-(4-methoxy-phenylamino)-ethyl]-propionamide]
Ki (Cathepsin S): < 10000 nM
Selectivity for Cat. S over Cat. K (Cathepsin K): ++ (++, >100)

COc1ccc2[nH]c(C(=O)N[C@@H](CC3CCCCC3)C(=O)NCCNc3ccc(OC(F)(F)F)cc3)cc2c1 [Compound 22, 5-Methoxy-1H-indole-2-carboxylic acid (S)-{2-cyclohexyl-1-[2-(4-trifluoromethoxy-phenylamino)-ethylcarbamoyl]-ethyl}-amide]
Ki (Cathepsin S): < 1000 nM
Selectivity for Cat. S over Cat. K (Cathepsin K): + (+, >10)

O=C(N[C@@H](CC1CCCCC1)C(=O)NCCNc1ccc(OC(F)(F)F)cc1)c1ccc(-c2ccccc2C(F)(F)F)s1 [Compound 35, 5-(2-Trifluoromethyl-phenyl)-thiophene-2-carboxylic acid (S)-{2-cyclohexyl-1-[2-(4-trifluoromethoxy-phenylamino)-ethylcarbamoyl]-ethyl}-amide]
Ki (Cathepsin S): < 100 nM
Selectivity for Cat. S over Cat. K (Cathepsin K): + (+, >10)

COc1ccc(NCCNC(=O)[C@H](CC2CCCCC2)NC(=O)c2nc(C)oc2C(F)(F)F)cc1 [Compound 190, (S)-2-Methyl-5-trifluoromethyl-oxazole-4-carboxylic acid {2-cyclohexyl-1-[2-(4-methoxy-phenylamino)-ethylcarbamoyl]-ethyl}-amide]
Ki (Cathepsin S): < 100 nM
Selectivity for Cat. S over Cat. K (Cathepsin K): +++ (+++, >1000)

O=C(N[C@@H](CC1CCCCC1)C(=O)NCCNc1ccc(OC(F)(F)F)cc1)c1ccc(-c2ccccc2)s1 [Compound 62, 5-Phenyl-thiophene-2-carboxylic acid (S)-{2-cyclohexyl-1-[2-(4-trifluoromethoxy-phenylamino)-ethylcarbamoyl]-ethyl}-amide]
Ki (Cathepsin S): < 100 nM
Selectivity for Cat. S over Cat. K (Cathepsin K): ++ (++, >100)

O=C(Cc1ccc(F)c(F)c1)N[C@@H](CC1CCCCC1)C(=O)NCCNc1ccc(F)cc1 [Compound 99, 3-Cyclohexyl-2-(S)-[2-(3,4-difluoro-phenyl)-acetylamino]-N-[2-(4-fluoro-phenylamino)-ethyl]-propionamide]
Ki (Cathepsin S): < 100 nM
Selectivity for Cat. S over Cat. K (Cathepsin K): ++ (++, >100)

O=C(N[C@@H](CC1CCCCC1)C(=O)NCCNc1ccc(F)cc1)c1ccc(-c2ccc(F)cc2)o1 [Compound 322, 5-(4-Fluoro-phenyl)-furan-2-carboxylic acid (S)-{2-cyclohexyl-1-[2-(4-fluoro-phenylamino)-ethylcarbamoyl]-ethyl}-amide]
Ki (Cathepsin S): < 100 nM
Selectivity for Cat. S over Cat. K (Cathepsin K): ++ (++, >100)

COc1ccc(NCCNC(=O)[C@H](Cc2ccc(F)cc2)NC(=O)c2cccc(C)c2)cc1 [Compound 245, (S)-N-{2-(4-Fluoro-phenyl)-1-[2-(4-methoxy-phenylamino)-ethylcarbamoyl]-ethyl}-3-methyl-benzamide]
Ki (Cathepsin S): < 100 nM
Selectivity for Cat. S over Cat. K (Cathepsin K): +++ (+++, >1000)

COc1ccc(NCCNC(=O)[C@H](CC2CCCCC2)NC(=O)c2ccc(C)c(Br)c2)cc1 [Compound 112, (S)-3-Bromo-N-{2-cyclohexyl-1-[2-(4-methoxy-phenylamino)-ethylcarbamoyl]-ethyl}-4-methyl-benzamide]
Ki (Cathepsin S): < 100 nM
Selectivity for Cat. S over Cat. K (Cathepsin K): ++ (++, >100)

COc1ccc(NCCNC(=O)[C@H](Cc2ccccc2)NC(=O)c2cnn(-c3ccccc3)c2C(F)(F)F)cc1 [Compound 41, (S)-1-Phenyl-5-trifluoromethyl-1H-pyrazole-4-carboxylic acid {1-[2-(4-methoxy-phenylamino)-ethylcarbamoyl]-2-phenyl-ethyl}-amide]
Ki (Cathepsin S): < 1000 nM
Selectivity for Cat. S over Cat. K (Cathepsin K): ++ (++, >100)

COc1ccc(NCCNC(=O)[C@H](Cc2ccc(-c3cccc(C(C)=O)c3)cc2)NC(=O)c2cccc(C)c2)cc1 [Compound 290, (S)-N-{2-(3′-Acetyl-biphenyl-4-yl)-1-[2-(4-methoxy-phenylamino)-ethylcarbamoyl]-ethyl}-3-methyl-benzamide]
Ki (Cathepsin S): < 100 nM
Selectivity for Cat. S over Cat. K (Cathepsin K): +++ (+++, >1000)

COc1ccc(NCCNC(=O)[C@H](CC2CCOCC2)NC(=O)c2ccc(-c3cccc(C(F)(F)F)c3)o2)cc1 [Compound 5, N-((S)-1-(2-(4-methoxyphenylamino)ethylcarbamoyl)-2-(tetrahydro-2H-pyran-4-yl)ethyl)-5-(3-(trifluoromethyl)phenyl)furan-2-carboxamide]
Ki (Cathepsin S): < 1000 nM
Selectivity for Cat. S over Cat. K (Cathepsin K): + (+, >10)

O=C(N[C@@H](CC1CCCCC1)C(=O)NCCNc1ccc(OC(F)(F)F)cc1)c1ccsc1 [Compound 37, Thiophene-3-carboxylic acid (S)-{2-cyclohexyl-1-[2-(4-trifluoromethoxy-phenylamino)-ethylcarbamoyl]-ethyl}-amide]
Ki (Cathepsin S): < 100 nM
Selectivity for Cat. S over Cat. K (Cathepsin K): ++ (++, >100)

O=C(N[C@@H](CC1CCCCC1)C(=O)NCCNc1ccc(OC(F)(F)F)cc1)c1ccc(-c2ccc(C(F)(F)F)cc2)o1 [Compound 213, (S)-5-(4-Trifluoromethyl-phenyl)-furan-2-carboxylic acid {2-cyclohexyl-1-[2-(4-trifluoromethoxy-phenylamino)-ethylcarbamoyl]-ethyl}-amide]
Ki (Cathepsin S): < 100 nM
Selectivity for Cat. S over Cat. K (Cathepsin K): +++ (+++, >1000)

N#Cc1cccc(C(=O)N[C@@H](CC2CCCCC2)C(=O)NCCNc2ccc(F)cc2)c1 [Compound 324, 3-Cyano-N-(S)-{2-cyclohexyl-1-[2-(4-fluoro-phenylamino)-ethylcarbamoyl]-ethyl}-benzamide]
Ki (Cathepsin S): < 100 nM
Selectivity for Cat. S over Cat. K (Cathepsin K): ++ (++, >100)

COc1ccc(NCCNC(=O)C(NC(=O)c2cccc(C)c2)c2ccccc2OCc2ccccc2)cc1 (centres unmarked) [Compound 214, N-{(2-Benzyloxy-phenyl)-[2-(4-methoxy-phenylamino)-ethylcarbamoyl]-methyl}-3-methyl-benzamide]
Ki (Cathepsin S): < 100 nM
Selectivity for Cat. S over Cat. K (Cathepsin K): +++ (+++, >1000)

COc1ccc(NCCNC(=O)C(NC(=O)c2cccc(C)c2)c2ccc(C)cc2C)cc1 (centres unmarked) [Compound 224, N-{(2,4-Dimethyl-phenyl)-[2-(4-methoxy-phenylamino)-ethylcarbamoyl]-methyl}-3-methyl-benzamide]
Ki (Cathepsin S): < 1000 nM
Selectivity for Cat. S over Cat. K (Cathepsin K): ++ (++, >100)

O=C(N[C@@H](CC1CCCCC1)C(=O)NCCNc1ccc(OC(F)(F)F)cc1)C1CC(=O)N(Cc2ccco2)C1 (stereo partly drawn) [Compound 39, 1-Furan-2-ylmethyl-5-oxo-pyrrolidine-3-carboxylic acid (S)-{2-cyclohexyl-1-[2-(4-trifluoromethoxy-phenylamino)-ethylcarbamoyl]-ethyl}-amide]
Ki (Cathepsin S): < 1000 nM
Selectivity for Cat. S over Cat. K (Cathepsin K): ++ (++, >100)

O=C(N[C@@H](CC1CCCCC1)C(=O)NCCNc1ccc(OC(F)(F)F)cc1)c1cccc(CN2CCOCC2)c1 [Compound 200, (S)-N-{2-Cyclohexyl-1-[2-(4-trifluoromethoxy-phenylamino)-ethylcarbamoyl]-ethyl}-3-morpholin-4-ylmethyl-benzamide]
Ki (Cathepsin S): < 100 nM
Selectivity for Cat. S over Cat. K (Cathepsin K): + (+, >10)
